In patent publication US10058587B2, “Peptide composition for cancer treatment by inhibiting TRPV6 calcium channel activity” (priority 2008, dated 2018):
“Also recorded” adds a separate entry of the source. Where no end group is shown, it is not given here.

Columns and labels:
[1] = Repeated dose toxicity study; format: in vivo, NOD/SCID mice
Protocol: In order to investigate repeated dose toxicity, SorC27 at 400 mg/kg formulated in saline was injected (i.p.) into NOD/SCID mice every day for 12 days. The animals were observed cage-side each day and examined at the end of the experimental period.

Solubility (aqueous) = settings: aqueous
[2] = system: MCF 7 breast cancer cell line; experiment: Induction of apoptosis (APO-ONE caspase 3/7) and cell viability (CellTiter Blue); format: cell-based, human; set-up: key: decreased (+); or not (−); settings: SorC27
Protocol: (§1) MCF-7, MDA-MB-231, MDA-MB-415, MDA-MB-468 were grown in DMEM modified with 10% (v/v) fetal bovine serum, 2 mM L-glutamine and 50 ug/mL each of penicillin and streptomycin.
(§2) The levels of apoptotic induction and cell viability were determined by multiplexing the measurements for single samples. CellTiter Blue and APO-ONE assay systems from Promega allows the determination of cell viability correlated to cell number, and induction of apoptosis. This protocol uses a fluorgenic peptide that contains a peptide recognition-sequence for caspase 3 and caspase 7, […] proteolytic enzymes of the apoptosis cascade. The CellTiter Blue reagent was added to wells in a 96-well plate containing cells under test, immediately after addition of peptide solution or vehicle. About 5000 cells were plated into the wells the day before. At the chosen time (Day 1, Day 2 etc.) the fluorescence was measured at 590 nm (emission) after excitation at 560 nm. The caspase 3/7 activity was measured (485 nm Ex/527 nm Em) in the same wells after adding 120 uL of the Apo-ONE reagent, freeze fracturing at −80° C. for 1 hr, and incubating for 1 hr at room temperature.
For this work, the concentrations of SorC13 and SorC27 used were 0 uM, 1 uM, 10 uM and 100 uM. The experiments extended over a 5 to 7 day period. […]

[3] = system: SKOV3 ovarian cancer xenografts; experiment: SKOV3 ovarian cancer xenograft, SorC13 with CAT chemotherapy (Example 26); format: in vivo, NOD/SCID mice; settings: day 12; SorC13 300 mg/kg i.p. Day 1 to 12
Protocol: SorC13 stock solutions were prepared by dissolving the appropriate amounts of the compound in physiologically buffered saline (pH 7.0 at 25° C.) to comprise a final solution to deliver 300 mg/Kg mouse. Stock solutions were prepared weekly, stored at −20° C. and diluted fresh each day for dosing. All solutions were filter sterilized with a 0.22 mu filter prior to further manipulation. The filter sterilizer units were pre-washed with a small volume of sterile distilled water. […]
To implant SKOV3 tumor cells into NOD/SCID mice, cell cultures were centrifuged to pellet the cells, the supernatant was aspirated, the cell pellet resuspended in 10 ml of growth media and the cell number was determined using a hemocytometer. […]
Tumor volumes (V) were calculated by caliper measurement using standard measurements of the width (W), length (L) and thickness (T) of tumors. […] Percentage ΔT/ΔC values, as a measure of efficacy, were determined where ΔC refers to change in volume of control or untreated tumor, and ΔT refers to change in volume of treated tumor.
Animals were intraperitoneally (i.p.) injected with the vehicular control, or the low, medium or high doses of CAT or CAT and SorC13. […] The tumor volume and body weights were measured every day. As well, general health of the animals was monitored every day.

[4] = system: MCF 7 breast cancer cell line; experiment: Induction of apoptosis (APO-ONE caspase 3/7) and cell viability (CellTiter Blue); format: cell-based, human; set-up: key: cell viability decreased (+); or not (−)
Protocol: as §1, §2
For this work, the concentrations of SorC13 and SorC27 used were 0 uM, 1 uM, 10 uM and 100 uM. The experiments extended over a 5 to 7 day period. All measurements were done in quadruplicate with both a blank (no cells) and control (vehicle, no peptide) used to correct the test measurements. The time-response data, and the dose-response data were plotted as means±standard error of the mean. Any statistical comparisons were done with the Student's t-test or by ANOVA analysis over the dose course. The level of statistical significance was considered to be the 95% confidence interval (i.e., p≤0.05).
To benchmark the effect of both C-type peptides to the gold-standard treatment presently used against breast cancer (Paclitaxel), SorC13, SorC27 and Paclitaxel (10 uM) were compared. Both the APO-ONE assay (Promega) and the CellTiter Blue were used on the panel of breast cancer cell lines. […]

[5] = 400 mg/kg, daily i.p. injection for 12 days

Row | Sequence | toxicity of multiple dose ([1]; 400 mg/kg i.p. each day for 12 days) | Repeated dose in NOD/SCID mice: body weight [1, 5] | Repeated dose in NOD/SCID mice: toxic effects [1, 5] | solubility (Solubility (aqueous)) [mg/mL] | Decline in cell viability [2] | % ΔT/ΔC (tumour volume normalized to control volume) [3] [%] | Mean tumor volume [3] [mm^3] | Decline in cell viability ([4]; SorC13 1 uM) | Decline in cell viability ([4]; SorC13 10 uM) | Decline in cell viability ([4]; SorC13 100 uM)
1 | EGKLSSNDTEGGLCKEFLHPSKVDLPR [SorC27] | no indication of toxicity; also recorded: no toxic effect, weight loss or change in organs on necropsy | No loss of body weight | no toxic effects noted | > 200 | + |  |  |  |  | 
2 | KEFLHPSKVDLPR [SorC13, KEFLHPSKVDLPR] |  |  |  |  |  | 47.6 | 116.8 | − | − | +
